In general, logP refers to the decadic logarithm of the partition coefficient of the neutral form, usually between octanol and water. Read a low logP as a more hydrophilic compound.

logP data for 36 molecules are collected here from the OPERA property sets (Mansouri et al. 2018).

`CCCCCCCCn1nnc(Oc2ccc(NC(=O)N(C)C)cc2)n1` gave a logP of 4.4.

With `CCn1nnnc1Oc1ccc(NC(=O)N(C)C)cc1Cl`, the logP was 1.5.

As for `CCc1ccc(F)c(NC(=O)N(C)C(=O)NC)c1`, the logP was found to be 3.23.

`CN(C)C(=O)Nc1ccc(Oc2nnnn2C(C)(C)C)c(Cl)c1` displayed a logP of 2.25.

In the case of `CCOC(=O)Cn1nnnc1Oc1ccc(NC(=O)N(C)C)cc1`, the log partition coefficient (logP) stood at 0.7.

On to `Fc1ccccc1C1OCC2ON=C(c3ccccc3)C2CO1` (stereo unspecified), for which the logP was found to be 2.35.

Regarding `CCCCCCCCn1nnnc1Oc1ccc(NC(=O)N(C)C)cc1`, the logP amounted to 3.96.

Turning to `CNC(=O)N(C)C(=O)Nc1cc(I)ccc1F`, the logP turned out to be 3.58.

Regarding `CN(C)C(=O)Nc1ccc(Oc2nnn(C(C)(C)C)n2)cc1`, the logP was 2.08.

`CNC(=O)N(C)C(=O)Nc1cc(Cc2ccccc2)ccc1F` showed a logP of 3.9.

`C#CCn1nnnc1Oc1ccc(NC(=O)N(C)C)cc1` had a logP of 1.

Molecule `CCn1nnc(Oc2ccc(NC(=O)N(C)C)cc2)n1` gave a logP of 1.1.

Molecule `CCC(CC)c1ccc(F)c(NC(=O)N(C)C(=O)NC)c1` registered a logP of 4.46.

The molecule `CNC(=O)N(C)C(=O)Nc1cc(C2CCCCC2)ccc1F` had a logP of 4.58.

The molecule `CN(C)C(=O)Nc1ccc(Oc2nnn(C)n2)cc1` had a logP of 0.63.

Molecule `CNC(=O)N(C)C(=O)Nc1cc(C(=O)OC)ccc1F` had a logP of 2.28.

`CNC(=O)N(C)C(=O)Nc1ccccc1F` returned a lipophilicity (logP) of 2.12.

The molecule `C#CCn1nnc(Oc2ccc(NC(=O)N(C)C)cc2)n1` came in with a logP of 1.65.

`CNC(=O)N(C)C(=O)Nc1cc(C(C)=O)ccc1F` yielded a logP of 1.82.

On to `CNC(=O)N(C)C(=O)Nc1cc(F)ccc1F`, for which the logP worked out at 2.4.

`CNC(=O)N(C)C(=O)Nc1cc(S(=O)(=O)C(C)C)ccc1F` had a logP of 1.87.

On to `CN(C)C(=O)Nc1ccc(Oc2nnn(CCC#N)n2)cc1`, for which the logP was 0.28.

Regarding `CNC(=O)N(C)C(=O)Nc1cc(OC)ccc1F`, the logP was 2.14.

Turning to `CNC(=O)N(C)C(=O)Nc1cc(OC(C)C)ccc1F`, the logP turned out to be 3.08.

The molecule `CNC(=O)N(C)C(=O)Nc1cc([N+](=O)[O-])ccc1F` came in with a logP of 2.3.

For `Cc1ccccc1C1OCC2ON=C(c3ccccc3)C2CO1` (stereo unspecified), the logP is 2.72.

Consider `CN(C)C(=O)Nc1ccc(Oc2nnnn2Cc2ccccc2)cc1`, for which the logP came to 1.7.

As for `CNC(=O)N(C)C(=O)Nc1cc(C(C)C)ccc1F`, the lipophilicity (logP) was 3.53.

The molecule `CNC(=O)N(C)C(=O)Nc1cc(C(C)(C)C)ccc1F` registered a logP of 3.96.

For `CN(C)C(=O)Nc1ccc(Oc2nnnn2C(C)(C)C)cc1`, the logP was 1.65.

As for `CN(C)C(=O)Nc1ccc(Oc2nnn(C3CCCCC3)n2)cc1`, the logP is 2.67.

`CN(C)C(=O)Nc1ccc(Oc2nnn(Cc3ccccc3)n2)cc1` returned a logP of 2.25.

Regarding `C=CCn1nnc(Oc2ccc(NC(=O)N(C)C)cc2)n1`, the logP was 1.65.

Molecule `CNC(=O)N(C)C(=O)Nc1cc(-c2ccccc2)ccc1F` yielded a logP of 3.78.

As to `c1ccc(C2=NOC3COC(c4ccccc4)OCC23)cc1` (stereo unspecified), the logP was 3.42.

As for `CC(C)n1nnc(Oc2ccc(NC(=O)N(C)C)cc2)n1`, the logP worked out at 1.45.
